Measurements: ChEMBL document CHEMBL4507257, “Data for DCP probe ABT-100” (2021)
Active and inactive are the calls of the source. The calls are words filed in the database; no cut-off is given here.

How the values were obtained:
[1] = biological target: Protein farnesyltransferase (Bos taurus, UniProt P29702+P49355); assay: (§1) Scintillation proximity assay (SPA); format: protein-complex assay
[2] = biological target: Endothelin receptor type B (Homo sapiens) (UniProt P24530); assay: ETB (h) Ligand binding assay; conditions: Compound concentration 10.0 uM
[3] = GABA (non selective) Ligand binding assay; conditions: Compound concentration 10.0 uM
[4] = biological target: Platelet-derived growth factor receptor (Homo sapiens) (UniProt P09619+P16234); assay: PDGF Ligand binding assay; format: protein-complex assay; conditions: Compound concentration 10.0 uM
[5] = biological target: Prostacyclin receptor (Homo sapiens) (UniProt P43119); assay: PGI2 (h) Ligand binding assay; conditions: Compound concentration 10.0 uM
[6] = biological target: Calcium-activated potassium channel (Homo sapiens) (UniProt Q92952+Q9UGI6+Q12791+O15554+Q9H2S1+A8MYU2); assay: K+ channel (Ca2+ - dependent) Ligand binding assay; format: protein assay; conditions: Compound concentration 10.0 uM
[7] = biological target: Bombesin receptor (Homo sapiens) (UniProt P28336+P32247+P30550); assay: Bombesin Ligand binding assay; format: protein assay; conditions: Compound concentration 10.0 uM
[8] = biological target: Calcitonin-gene-related peptide receptor, CALCRL/RAMP1 (Homo sapiens) (UniProt O60894+Q16602); assay: CGRP (h) Ligand binding assay; format: protein-complex assay; conditions: Compound concentration 10.0 uM
[9] = biological target: Substance-K receptor (Homo sapiens) (UniProt P21452); assay: NK2 (h) Ligand binding assay
[10] = biological target: Somatostatin receptor (Homo sapiens) (UniProt P35346+P30874+P31391+P30872+P32745); assay: Somatostatin Ligand binding assay; format: protein assay; conditions: Compound concentration 10.0 uM
[11] = as §1; design: species or system Homo sapiens
[12] = biological target: Galanin receptor type 1 (Homo sapiens) (UniProt P47211); assay: GALI (h) Ligand binding assay; conditions: Compound concentration 10.0 uM
[13] = biological target: Adenosine receptor A1 (Homo sapiens) (UniProt P30542); assay: A1 (h) Ligand binding assay; conditions: Compound concentration 10.0 uM
[14] = biological target: Muscarinic acetylcholine receptor M2 (Homo sapiens) (UniProt P08172); conditions: Compound concentration 10.0 uM
[15] = biological target: Atrial natriuretic peptide receptor 1 (Homo sapiens) (UniProt P16066); assay: ANP Ligand binding assay; conditions: Compound concentration 10.0 uM
[16] = biological target: Gastrin/cholecystokinin type B receptor (Homo sapiens) (UniProt P32239); assay: CCKB (h) Ligand binding assay; conditions: Compound concentration 10.0 uM
[17] = biological target: Kappa-type opioid receptor (Homo sapiens) (UniProt P41145); assay: Kappa (h) Ligand binding assay; conditions: Compound concentration 10.0 uM
[18] = biological target: Cyclin-dependent kinase 7 (Homo sapiens, UniProt P50613); assay: Inhibition of CDK7 at compound concentration of 10.0 uM using the ScanMax (DiscoverX)
[19] = biological target: Tumor necrosis factor (Homo sapiens) (UniProt P01375); assay: TNF-alpha (h) Ligand binding assay; conditions: Compound concentration 10.0 uM

Chain of Substance-K receptor (Homo sapiens) (P21452 whole entry): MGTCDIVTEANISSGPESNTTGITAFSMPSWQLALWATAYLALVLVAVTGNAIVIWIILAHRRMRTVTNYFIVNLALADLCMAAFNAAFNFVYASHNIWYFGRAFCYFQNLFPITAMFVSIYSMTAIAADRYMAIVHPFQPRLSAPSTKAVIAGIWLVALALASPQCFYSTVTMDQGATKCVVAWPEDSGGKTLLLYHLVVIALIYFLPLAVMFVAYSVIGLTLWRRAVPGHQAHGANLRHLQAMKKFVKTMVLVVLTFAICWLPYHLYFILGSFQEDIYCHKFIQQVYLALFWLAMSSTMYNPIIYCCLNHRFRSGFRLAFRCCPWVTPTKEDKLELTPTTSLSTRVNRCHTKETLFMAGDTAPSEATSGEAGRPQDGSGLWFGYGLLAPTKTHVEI
Chain of Galanin receptor type 1 (Homo sapiens) (P47211 whole entry): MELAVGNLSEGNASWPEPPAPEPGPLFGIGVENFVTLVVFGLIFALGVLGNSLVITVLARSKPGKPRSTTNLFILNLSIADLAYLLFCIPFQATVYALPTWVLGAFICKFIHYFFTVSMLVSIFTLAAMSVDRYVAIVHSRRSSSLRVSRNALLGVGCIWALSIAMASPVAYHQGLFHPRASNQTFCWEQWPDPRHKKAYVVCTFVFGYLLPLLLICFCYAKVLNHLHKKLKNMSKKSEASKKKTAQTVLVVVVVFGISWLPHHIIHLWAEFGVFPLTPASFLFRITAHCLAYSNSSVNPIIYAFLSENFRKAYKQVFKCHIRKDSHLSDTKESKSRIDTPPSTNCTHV
Chain of Endothelin receptor type B (Homo sapiens) (P24530 whole entry): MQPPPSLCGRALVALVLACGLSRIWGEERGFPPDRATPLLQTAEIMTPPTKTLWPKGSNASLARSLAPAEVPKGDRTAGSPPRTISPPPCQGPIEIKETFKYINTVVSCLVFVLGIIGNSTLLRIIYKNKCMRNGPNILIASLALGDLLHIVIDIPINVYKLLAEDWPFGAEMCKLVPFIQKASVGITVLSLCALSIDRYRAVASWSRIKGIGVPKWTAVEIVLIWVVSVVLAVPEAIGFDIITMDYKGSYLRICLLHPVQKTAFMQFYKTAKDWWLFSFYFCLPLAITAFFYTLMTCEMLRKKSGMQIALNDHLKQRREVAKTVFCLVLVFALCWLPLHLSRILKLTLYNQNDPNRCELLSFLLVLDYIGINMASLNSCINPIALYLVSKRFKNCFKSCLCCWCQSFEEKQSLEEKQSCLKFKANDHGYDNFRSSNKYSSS
Chain of Kappa-type opioid receptor (Homo sapiens) (P41145 whole entry): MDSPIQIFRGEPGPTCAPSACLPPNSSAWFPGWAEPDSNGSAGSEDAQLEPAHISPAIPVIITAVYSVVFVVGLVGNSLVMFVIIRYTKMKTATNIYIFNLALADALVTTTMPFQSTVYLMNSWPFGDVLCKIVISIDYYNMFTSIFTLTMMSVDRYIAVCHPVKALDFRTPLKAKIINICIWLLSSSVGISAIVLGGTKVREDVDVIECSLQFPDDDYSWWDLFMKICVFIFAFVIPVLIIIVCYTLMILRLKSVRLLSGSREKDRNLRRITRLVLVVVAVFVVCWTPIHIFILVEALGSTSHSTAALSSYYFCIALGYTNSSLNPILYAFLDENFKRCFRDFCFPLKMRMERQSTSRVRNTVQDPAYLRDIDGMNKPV
Chain of Adenosine receptor A1 (Homo sapiens) (P30542 whole entry): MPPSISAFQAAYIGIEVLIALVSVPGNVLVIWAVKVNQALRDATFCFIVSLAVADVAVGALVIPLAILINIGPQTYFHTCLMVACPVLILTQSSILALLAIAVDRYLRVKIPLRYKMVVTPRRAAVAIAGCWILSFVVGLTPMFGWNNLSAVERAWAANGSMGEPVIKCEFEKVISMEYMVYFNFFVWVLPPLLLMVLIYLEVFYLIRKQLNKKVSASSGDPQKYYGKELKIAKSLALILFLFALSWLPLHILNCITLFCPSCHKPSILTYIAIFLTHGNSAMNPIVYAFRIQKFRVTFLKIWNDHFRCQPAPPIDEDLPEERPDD
Chain of Prostacyclin receptor (Homo sapiens) (P43119 whole entry): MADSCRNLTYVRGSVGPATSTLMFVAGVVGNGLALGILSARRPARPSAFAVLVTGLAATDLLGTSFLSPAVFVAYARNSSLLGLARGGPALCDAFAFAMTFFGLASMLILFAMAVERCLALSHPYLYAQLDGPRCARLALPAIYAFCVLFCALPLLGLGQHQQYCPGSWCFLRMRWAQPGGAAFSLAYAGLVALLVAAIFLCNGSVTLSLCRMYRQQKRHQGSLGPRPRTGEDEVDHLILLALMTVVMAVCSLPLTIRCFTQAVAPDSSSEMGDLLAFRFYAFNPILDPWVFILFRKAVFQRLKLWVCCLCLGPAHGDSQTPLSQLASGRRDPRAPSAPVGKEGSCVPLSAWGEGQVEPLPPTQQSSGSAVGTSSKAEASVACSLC
Chain of Bombesin receptor (Homo sapiens) (P28336 whole entry, looked up): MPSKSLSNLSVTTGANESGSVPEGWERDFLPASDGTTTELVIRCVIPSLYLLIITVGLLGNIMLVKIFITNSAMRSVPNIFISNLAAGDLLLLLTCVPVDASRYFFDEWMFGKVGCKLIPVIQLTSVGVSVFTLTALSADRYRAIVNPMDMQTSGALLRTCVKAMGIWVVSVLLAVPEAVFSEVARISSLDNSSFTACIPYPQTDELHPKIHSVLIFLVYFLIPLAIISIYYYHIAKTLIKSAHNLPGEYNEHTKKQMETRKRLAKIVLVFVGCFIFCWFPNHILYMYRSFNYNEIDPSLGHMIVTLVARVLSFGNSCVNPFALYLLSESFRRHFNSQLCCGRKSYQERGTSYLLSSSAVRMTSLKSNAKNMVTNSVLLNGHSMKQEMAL
Chain of Bombesin receptor (Homo sapiens) (P30550 whole entry, looked up): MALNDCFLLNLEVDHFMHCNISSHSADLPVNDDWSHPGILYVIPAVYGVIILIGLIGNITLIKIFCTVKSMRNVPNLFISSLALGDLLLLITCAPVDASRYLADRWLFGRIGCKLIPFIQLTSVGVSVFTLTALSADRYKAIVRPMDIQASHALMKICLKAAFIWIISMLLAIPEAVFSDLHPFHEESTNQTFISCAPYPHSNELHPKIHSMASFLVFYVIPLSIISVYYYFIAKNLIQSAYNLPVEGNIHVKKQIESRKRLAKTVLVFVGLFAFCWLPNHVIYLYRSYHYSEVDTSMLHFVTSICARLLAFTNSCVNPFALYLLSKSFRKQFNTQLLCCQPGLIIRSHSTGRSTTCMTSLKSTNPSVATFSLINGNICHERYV
Chain of Bombesin receptor (Homo sapiens) (P32247 whole entry, looked up): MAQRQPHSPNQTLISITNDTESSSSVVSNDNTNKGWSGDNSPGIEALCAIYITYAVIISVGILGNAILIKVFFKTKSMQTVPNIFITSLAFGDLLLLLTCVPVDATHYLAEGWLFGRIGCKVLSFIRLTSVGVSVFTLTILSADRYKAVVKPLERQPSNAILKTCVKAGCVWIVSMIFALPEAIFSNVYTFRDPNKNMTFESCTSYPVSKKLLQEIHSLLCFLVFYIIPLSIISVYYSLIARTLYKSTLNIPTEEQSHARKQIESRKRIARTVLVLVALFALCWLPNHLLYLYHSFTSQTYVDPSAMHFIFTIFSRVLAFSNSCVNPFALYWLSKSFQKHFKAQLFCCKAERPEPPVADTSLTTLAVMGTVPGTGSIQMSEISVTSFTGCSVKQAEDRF
Chain of Gastrin/cholecystokinin type B receptor (Homo sapiens) (P32239 whole entry): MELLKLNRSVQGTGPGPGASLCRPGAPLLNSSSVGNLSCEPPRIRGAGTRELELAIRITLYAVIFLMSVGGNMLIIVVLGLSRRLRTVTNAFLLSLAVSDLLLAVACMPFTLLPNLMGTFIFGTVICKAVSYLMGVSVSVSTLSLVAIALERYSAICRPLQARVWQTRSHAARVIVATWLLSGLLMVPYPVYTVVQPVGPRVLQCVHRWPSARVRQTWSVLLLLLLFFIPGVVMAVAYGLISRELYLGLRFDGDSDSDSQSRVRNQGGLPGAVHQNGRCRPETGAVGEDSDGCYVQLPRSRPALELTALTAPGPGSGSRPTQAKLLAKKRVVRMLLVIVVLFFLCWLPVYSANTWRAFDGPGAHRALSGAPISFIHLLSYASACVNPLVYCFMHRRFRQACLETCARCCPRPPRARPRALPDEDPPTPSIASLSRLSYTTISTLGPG
Chain of Muscarinic acetylcholine receptor M2 (Homo sapiens) (P08172 whole entry): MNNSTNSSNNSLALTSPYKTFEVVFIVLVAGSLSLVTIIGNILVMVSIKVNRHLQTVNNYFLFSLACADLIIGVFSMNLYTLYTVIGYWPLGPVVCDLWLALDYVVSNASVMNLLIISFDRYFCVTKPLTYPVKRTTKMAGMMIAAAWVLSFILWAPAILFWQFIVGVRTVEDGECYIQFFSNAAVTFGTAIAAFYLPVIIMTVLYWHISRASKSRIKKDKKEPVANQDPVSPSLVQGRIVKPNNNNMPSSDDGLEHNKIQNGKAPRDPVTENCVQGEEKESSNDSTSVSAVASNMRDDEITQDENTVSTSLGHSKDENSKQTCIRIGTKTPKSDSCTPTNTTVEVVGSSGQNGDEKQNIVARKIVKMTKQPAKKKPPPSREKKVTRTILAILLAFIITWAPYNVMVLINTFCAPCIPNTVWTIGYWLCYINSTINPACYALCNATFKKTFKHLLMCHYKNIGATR
Chain of Cyclin-dependent kinase 7 (P50613 whole entry): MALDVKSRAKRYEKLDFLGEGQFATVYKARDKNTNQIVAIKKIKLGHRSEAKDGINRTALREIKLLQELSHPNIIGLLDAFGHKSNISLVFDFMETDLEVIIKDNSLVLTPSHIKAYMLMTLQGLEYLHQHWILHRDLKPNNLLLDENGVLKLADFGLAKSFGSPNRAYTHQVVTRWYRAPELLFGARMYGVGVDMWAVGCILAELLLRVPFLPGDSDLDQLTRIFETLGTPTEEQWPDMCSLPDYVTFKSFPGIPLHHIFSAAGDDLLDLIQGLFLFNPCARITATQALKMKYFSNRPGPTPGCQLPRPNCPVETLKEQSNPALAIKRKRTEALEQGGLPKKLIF

Question: With `Cn1cncc1[C@@](O)(COc1ccc(C#N)cc1-c1ccc(OC(F)(F)F)cc1)c1ccc(C#N)cc1` [A-108] as the compound, how does the IC50 [1] read?
Answer: > 100 nM (not active)

Question: What does the source list for `Cn1cncc1[C@](O)(COc1ccc(C#N)cc1-c1ccc(OC(F)(F)F)cc1)c1ccc(C#N)cc1` [ABT-100]?
Answer: inhibition [2]: 21%; inhibition [3]: < 10%; inhibition [4]: < 10%; inhibition [5]: < 10%; inhibition [6]: < 10%; inhibition [7]: < 10%; inhibition [8]: < 10%; inhibition ([9]; Compound concentration 3.0 uM): 32%; inhibition ([9]; Compound concentration 10.0 uM): 81%; inhibition [10]: 13%; IC50 [11]: 0.05 nM (active); inhibition [12]: < 10%; inhibition [13]: < 10%; inhibition [14]: -1.19%; inhibition [15]: < 10%; inhibition [16]: < 10%; inhibition [17]: 36%; Kd [18]: > 10 µM (not active); inhibition [19]: 24%
